Results as given in paper PMC12152147, “DDB1 engagement defines the selectivity of S656 analogs for cyclin K degradation over CDK inhibition” (EMBO Reports, 2025).
Several values for one entry are separate records, joined by “and”; a condition that tells them apart may be missing. Equal values may be shown once. Read-outs that look alike come from different tables or passages of the source.

Tests used:
[1] = target: T1, CDK9/CyclinT (Homo sapiens, UniProt P50750); assay: CDK9/CyclinT in vitro kinase activity, single concentration 1 μM; assay type: biochemical; settings: single concentration 1 μM
T1 construct: purchased BPS Bioscience 79628
Protocol: (§1) Kinase activity was assessed using the kinase assay kits from BPS Bioscience for CDK1, CDK9 and CDK12 with Kinase Glo MAX in duplicates. Compounds were tested at a single concentration of 1 μM for CDK1 and CDK9 activity, and in a dilution ranging from 0.64 nM to 50 μM for CDK12 activity. Chemiluminescence was read using the Neo Synergy BioTek plate reader.

[2] = target: T2, CDK1 (Homo sapiens, UniProt P06493); assay: CDK1 in vitro kinase activity, single concentration 1 μM; assay type: biochemical; settings: single concentration 1 μM
T2 construct: purchased BPS Bioscience 79597
Protocol: as §1

[3] = system: cyclin KeGFP; assay: Cyclin KeGFP reporter system (eGFP/mCherry MFI by flow cytometry);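 for % degradation cyclin K-eGFP: 10 μM compound for 3 h relative to DMSO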; assay type: cell-based, H. sapiens
Procedure, shortened: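 OCI-AML5 clone G7 carrying lentiviral cyclin KeGFP/mCherry reporter. eGFP and mCherry geometric MFI measured by flow cytometry; eGFP/mCherry ratio normalized to DMSO-treated cells.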

[4] = system: OCI-AML5 cells expressing shRNAs targeting CDK1, 2, 4, 7, 9, cyclin K; assay: Dose response in OCI-AML5 expressing shRNAs targeting CDK1, 2, 4, 7, 9, cyclin K or control; assay type: cell-based, H. sapiens
[5] = system: OCI-AML5 cells; assay: Dose-response proliferative assay in OCI-AML5 (4 days, CellTiterGlo); assay type: cell-based, H. sapiens; settings: Homo sapiens
Procedure, shortened: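 OCI-AML5 cells in αMEM, 10% heat-inactivated FBS plus 10 ng/mL GM-CSF, 300 cells/well, exposed to 8-point 1:4 serial dilutions (10 μM down to 0.5 nM). Viability read after 4 days in culture at 37 °C, 5% CO2.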

[6] = system: OCI-AML5 cells expressing shRNA targeting CUL4A or CUL4B; assay: Dose response in OCI-AML5 expressing shRNAs targeting CUL4A, CUL4B or control; assay type: cell-based, H. sapiens; settings: ratio of IC50 in shCUL4A vs shCTRL OCI-AML5 cells
[7] = system: primary AML specimens; assay: Dose-response assays in primary AML specimens (6 days, CellTiterGlo); assay type: cell-based, human; settings: Homo sapiens, 144 h, 6 days, read-out: IC50
Protocol: Freshly thawed primary AML specimens were used for chemical screens. Cryopreserved cells were thawed at 37 °C in IMDM containing 20% FBS and DNase I (100 μg/mL). Cells were resuspended in IMDM supplemented with 15% BIT (BSA, insulin, transferrin; StemCell Technologies), 100 ng/mL SCF, 50 ng/mL FLT3L, 20 ng/mL IL3, 20 ng/mL G-CSF, 10^−4 mol/L b-mercaptoethanol, gentamicin (50 μg/mL), ciprofloxacin (10 μg/mL), SR1 (500 nmol/L) and UM729 (500 nmol/L). Cells were plated in 384-well white plates, 5000 cells per well in 50 μL. Compounds were dissolved in DMSO, diluted in media immediately before use and added to seeded cells at the unique concentration of 1 μM. Control wells received DMSO (0.1%) only. Cell viability was evaluated after 6 days in culture using the CellTiterGlo assay according to the manufacturer’s instruction. Percentage of inhibition for dose response curves was calculated as 100 – (100 × (mean luminescence [compound]/mean luminescence [DMSO])). Dose response curves were generated using nonlinear regression in GraphPad Prism version.
Dose-response assays in primary AML specimens were performed as in chemical screen (see above) with the exception that compounds were tested in serial dilution (8 dilutions, 1:4, 10 μM down to 0.5 nM). Dose-response assays in OCI-AML5 cell line were conducted similarly with the following modifications: 300 cells per well were seeded in 50 μL of cell line media and cell viability was evaluated after 4 days in culture.

T2 sequence (P06493 whole entry): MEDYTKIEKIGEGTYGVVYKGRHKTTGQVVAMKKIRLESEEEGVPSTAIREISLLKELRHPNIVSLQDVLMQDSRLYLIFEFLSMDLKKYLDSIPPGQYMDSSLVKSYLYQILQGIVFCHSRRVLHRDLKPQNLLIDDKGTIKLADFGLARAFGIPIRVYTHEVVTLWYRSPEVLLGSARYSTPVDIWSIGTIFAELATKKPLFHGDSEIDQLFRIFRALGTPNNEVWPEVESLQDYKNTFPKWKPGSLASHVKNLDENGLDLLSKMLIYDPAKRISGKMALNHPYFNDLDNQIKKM
T2 sequence (P14635 whole entry partner): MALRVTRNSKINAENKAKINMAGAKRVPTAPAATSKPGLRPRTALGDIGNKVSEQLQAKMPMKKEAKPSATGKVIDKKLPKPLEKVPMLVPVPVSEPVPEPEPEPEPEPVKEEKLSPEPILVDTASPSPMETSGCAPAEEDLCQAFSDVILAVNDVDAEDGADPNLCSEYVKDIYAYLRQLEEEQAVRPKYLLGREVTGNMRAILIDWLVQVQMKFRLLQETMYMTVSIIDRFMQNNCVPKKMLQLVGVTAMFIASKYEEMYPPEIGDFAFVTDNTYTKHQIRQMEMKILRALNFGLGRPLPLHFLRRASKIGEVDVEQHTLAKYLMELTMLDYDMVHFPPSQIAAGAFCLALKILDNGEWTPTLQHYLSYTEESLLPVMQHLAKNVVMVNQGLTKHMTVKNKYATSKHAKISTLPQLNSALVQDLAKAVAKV
T1 sequence (P50750 whole entry): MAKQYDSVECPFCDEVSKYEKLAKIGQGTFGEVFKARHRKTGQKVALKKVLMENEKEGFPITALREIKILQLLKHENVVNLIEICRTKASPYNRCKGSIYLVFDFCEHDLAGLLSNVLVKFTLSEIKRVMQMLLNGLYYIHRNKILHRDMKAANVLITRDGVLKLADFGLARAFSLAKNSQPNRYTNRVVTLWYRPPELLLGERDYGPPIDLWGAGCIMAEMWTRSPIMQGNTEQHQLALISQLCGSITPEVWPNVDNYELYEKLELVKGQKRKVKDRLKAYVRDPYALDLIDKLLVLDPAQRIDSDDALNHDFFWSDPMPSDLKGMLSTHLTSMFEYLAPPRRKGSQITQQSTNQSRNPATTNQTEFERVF
T1 sequence (O60563 whole entry partner): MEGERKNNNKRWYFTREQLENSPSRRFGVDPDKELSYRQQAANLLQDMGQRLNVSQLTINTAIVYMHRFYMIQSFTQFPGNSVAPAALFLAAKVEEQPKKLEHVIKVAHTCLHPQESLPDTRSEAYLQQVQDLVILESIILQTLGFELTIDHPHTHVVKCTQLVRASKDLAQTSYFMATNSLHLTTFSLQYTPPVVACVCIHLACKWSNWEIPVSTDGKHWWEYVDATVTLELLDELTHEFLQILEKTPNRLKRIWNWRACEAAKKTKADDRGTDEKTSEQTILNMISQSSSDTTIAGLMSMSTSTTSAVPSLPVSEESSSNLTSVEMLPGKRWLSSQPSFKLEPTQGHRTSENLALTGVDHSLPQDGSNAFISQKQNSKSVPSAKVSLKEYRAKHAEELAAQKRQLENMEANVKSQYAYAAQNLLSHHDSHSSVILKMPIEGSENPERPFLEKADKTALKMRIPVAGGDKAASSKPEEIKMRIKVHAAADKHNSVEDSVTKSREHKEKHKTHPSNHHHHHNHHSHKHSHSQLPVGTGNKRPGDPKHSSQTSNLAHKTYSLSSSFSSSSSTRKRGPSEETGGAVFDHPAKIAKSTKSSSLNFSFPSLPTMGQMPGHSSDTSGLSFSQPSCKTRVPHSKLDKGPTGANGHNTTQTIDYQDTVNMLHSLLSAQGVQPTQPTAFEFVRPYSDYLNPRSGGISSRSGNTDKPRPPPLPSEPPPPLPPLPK

Cn1cc(-n2cnc3c(NCc4nc5cc(Cl)c(Cl)cc5[nH]4)nc(N4CCOCC4)nc32)cn1 [SR4835]
inhibition at 1 µM [1]: 0% | inhibition at 1 µM [2]: 0% | MFI of cyclin KeGFP over mCherry ([3]; OCI-AML5 G7 clone, 3 h, 10 μM, normalized to DMSO (=100)): 16.0 and 15.3 and 15.4 | % degradation cyclin K-eGFP ([3]; cyclin K-eGFP reporter): 84% | IC50 ([4]; Homo sapiens, OCI-AML-5, 96 h, read-out: IC50, sh CDK1, OCI-AML5, 4 days): 25.2 nM | IC50 ([4]; Homo sapiens, OCI-AML-5, 96 h, read-out: IC50, sh CDK2, OCI-AML5, 4 days): 22.8 nM | IC50 ([4]; Homo sapiens, OCI-AML-5, 96 h, read-out: IC50, sh CDK4, OCI-AML5, 4 days): 17.4 nM | IC50 ([4]; Homo sapiens, OCI-AML-5, 96 h, read-out: IC50, sh CDK7, OCI-AML5, 4 days): 20.2 nM | IC50 ([4]; Homo sapiens, OCI-AML-5, 96 h, read-out: IC50, sh CDK9, OCI-AML5, 4 days): 21.4 nM | IC50 ([4]; Homo sapiens, OCI-AML-5, 96 h, read-out: IC50, sh Cyclin K, OCI-AML5, 4 days): 5.7 nM | IC50 ([4]; Homo sapiens, OCI-AML-5, 96 h, read-out: IC50, sh ctrl, OCI-AML5, 4 days): 21.2 nM | Class ([4]; class from shRNA IC50 profile and cyclin K-eGFP degradation): 1 | IC50 ([4]; read-out: IC50, sh CDK1, OCI-AML5, 4 days): 22.7 nM and 35.9 nM | IC50 ([4]; read-out: IC50, sh CDK2, OCI-AML5, 4 days): 21.1 nM and 33.4 nM | IC50 ([4]; read-out: IC50, sh CDK4, OCI-AML5, 4 days): 20.7 nM and 17.8 nM | IC50 ([4]; read-out: IC50, sh CDK7, OCI-AML5, 4 days): 23.7 nM and 34.5 nM | IC50 ([4]; read-out: IC50, sh CDK9, OCI-AML5, 4 days): 17.3 nM and 16.7 nM | IC50 ([4]; read-out: IC50, sh Cyclin K, OCI-AML5, 4 days): 8.31 nM and 5.07 nM | IC50 ([4]; read-out: IC50, sh ctrl, OCI-AML5, 4 days): 17.9 nM and 15.9 nM | IC50 ([5]; OCI-AML-5, OCI-AML5 cells, read-out: IC50 in AML5): 18 nM | Ratio shCUL4A/shCTRL [6]: 4.77 | IC50 ([7]; primary AML specimen 03H109): 23.9 nM | IC50 ([7]; primary AML specimen 04H055): 37.9 nM | IC50 ([7]; primary AML specimen 04H096): 37.8 nM | IC50 ([7]; primary AML specimen 04H138): 46.2 nM | IC50 ([7]; primary AML specimen 05H113): 37.3 nM | IC50 ([7]; primary AML specimen 05H149): 45.5 nM | IC50 ([7]; primary AML specimen 05H193): 42.9 nM | IC50 ([7]; primary AML specimen 06H088): 40.2 nM | IC50 ([7]; primary AML specimen 06H117): 34.3 nM | IC50 ([7]; primary AML specimen 06H151): 28.5 nM | IC50 ([7]; primary AML specimen 07H003): 44.1 nM | IC50 ([7]; primary AML specimen 07H131): 99 nM | IC50 ([7]; primary AML specimen 07H144): 31.9 nM | IC50 ([7]; primary AML specimen 07H155): 55.9 nM | IC50 ([7]; primary AML specimen 08H018): 41.3 nM | IC50 ([7]; primary AML specimen 08H021): 29.8 nM | IC50 ([7]; primary AML specimen 08H056): 70.5 nM | IC50 ([7]; primary AML specimen 08H063): 125 nM | IC50 ([7]; primary AML specimen 08H085): 38.9 nM | IC50 ([7]; primary AML specimen 08H108): 41.7 nM | IC50 ([7]; primary AML specimen 08H118): 33.5 nM | IC50 ([7]; primary AML specimen 09H016): 35.3 nM | IC50 ([7]; primary AML specimen 09H070): 124 nM | IC50 ([7]; primary AML specimen 10H014): 38 nM | IC50 ([7]; primary AML specimen 10H046): 38.8 nM | IC50 ([7]; primary AML specimen 10H107): 37.1 nM | IC50 ([7]; primary AML specimen 10H127): 48 nM | IC50 ([7]; primary AML specimen 10H161): 42.2 nM | IC50 ([7]; primary AML specimen 10H174): 38.2 nM | IC50 ([7]; primary AML specimen 11H008): 45.7 nM | IC50 ([7]; primary AML specimen 11H019): 41 nM | IC50 ([7]; primary AML specimen 11H170): 141 nM | IC50 ([7]; primary AML specimen 11H217): 48.8 nM | IC50 ([7]; primary AML specimen 11H232): 39.8 nM | IC50 ([7]; primary AML specimen 12H033): 61.4 nM | IC50 ([7]; primary AML specimen 12H055): 44.7 nM | IC50 ([7]; primary AML specimen 12H148): 44.4 nM | IC50 ([7]; primary AML specimen 13H053): 55.9 nM | IC50 ([7]; primary AML specimen 15H045): 28.4 nM | IC50 ([7]; primary AML specimen 17H065): 59.1 nM

CN(CCOCCOCCN)c1ccc(CC(=O)Nc2ncc(SCc3cccnc3)s2)cc1 [UOM-005790]
IC50 ([5]; OCI-AML-5, 96 h, 4 days incubation, read-out: IC50 OCI-AML5): 680 nM
